The results in this text go back to US11685732B2, “MYST family histone acetyltransferase inhibitors” (Epizyme, Inc., priority 2017, dated 2023).

Bounds are passed on as bounds.

Assay [1] has as its target KAT-5 (Homo sapiens (Human), UniProt Q92993). The experiment in a line: KAT-5 biochemical inhibition assay (SAMDI mass spectrometry). The method, boiled down: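 KAT-5 at 9 nM final was preincubated with serially diluted compound (2% DMSO) in 50 mM Tris pH 8.0 with 1 mM DTT. Reaction ran with 1 μM peptide substrate and 0.5 μM acetyl-CoA for 90 min at 25° C, was quenched with 0.5% formic acid, and was read by SAMDI-TOF mass spectrometry.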

The target of assay [2] is KAT-6A (Homo sapiens (Human), UniProt Q92794). In words: KAT-6A biochemical inhibition assay (SAMDI mass spectrometry). The gist of the method: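 Enzyme (12.5 nM final) pre-incubated with serially diluted compounds (2% DMSO final) in 50 mM Tris pH 8.0 with Tween20, gelatin and 1 mM DTT. Reaction started with 1 μM peptide substrate and 1 μM acetyl-CoA, run 90 min at 25 °C, quenched with 0.5% formic acid, read by SAMDI-TOF mass spectrometry; IC50 derived.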
Chain of KAT-6A (Q92794 other isoform, or with tags, fused parts or gaps): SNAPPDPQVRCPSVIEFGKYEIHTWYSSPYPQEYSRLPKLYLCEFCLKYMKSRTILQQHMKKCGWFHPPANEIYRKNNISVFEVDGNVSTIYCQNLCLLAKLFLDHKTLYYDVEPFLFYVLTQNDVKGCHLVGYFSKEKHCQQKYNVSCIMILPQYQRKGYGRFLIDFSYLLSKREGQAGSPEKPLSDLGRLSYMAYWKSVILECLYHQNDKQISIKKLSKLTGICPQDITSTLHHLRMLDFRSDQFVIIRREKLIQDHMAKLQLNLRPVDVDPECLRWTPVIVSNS

For assay [3], the target named is KAT-7 (Homo sapiens (Human), UniProt O95251). In words: KAT-7 biochemical inhibition assay (SAMDI mass spectrometry). The gist of the method:
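KAT-7 (6 nM) was pre-incubated with serially diluted compound (2% DMSO) in Tris pH 8.0 with DTT. Reaction with 1 μM peptide and 2 μM acetyl-CoA ran 120 min at 25 °C and was stopped with 0.5% formic acid. Acetylation was read by SAMDI-TOF mass spectrometry to give IC50.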

Assay [4] addresses KAT-8 (Homo sapiens (Human), UniProt Q9H7Z6). In words: KAT-8 biochemical inhibition assay (SAMDI mass spectrometry). The gist of the method: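 Compounds in 2% DMSO pre-incubated with 12.5 nM enzyme in 50 mM Tris pH 8.0 with Tween20, gelatin and 1 mM DTT. Then 1 μM peptide and 5 μM acetyl-CoA were added, 90 min at 25 °C; formic acid stop and SAMDI-TOF mass spectrometry for IC50.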

Chain of KAT-8 (Q9H7Z6 other isoform, or with tags, fused parts or gaps): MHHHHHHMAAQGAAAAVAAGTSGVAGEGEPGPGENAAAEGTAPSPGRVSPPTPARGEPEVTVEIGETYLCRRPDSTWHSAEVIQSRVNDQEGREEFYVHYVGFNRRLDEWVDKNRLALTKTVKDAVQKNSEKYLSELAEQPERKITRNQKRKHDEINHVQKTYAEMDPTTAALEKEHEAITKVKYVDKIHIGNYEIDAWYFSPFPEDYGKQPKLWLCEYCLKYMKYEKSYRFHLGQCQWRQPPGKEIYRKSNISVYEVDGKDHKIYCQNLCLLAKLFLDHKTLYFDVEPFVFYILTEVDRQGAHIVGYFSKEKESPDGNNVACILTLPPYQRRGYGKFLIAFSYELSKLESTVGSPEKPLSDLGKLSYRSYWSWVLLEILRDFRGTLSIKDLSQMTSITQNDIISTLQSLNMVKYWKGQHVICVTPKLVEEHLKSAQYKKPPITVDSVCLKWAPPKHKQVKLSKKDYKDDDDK
Chain of KAT-7 (O95251 other isoform, or with tags, fused parts or gaps): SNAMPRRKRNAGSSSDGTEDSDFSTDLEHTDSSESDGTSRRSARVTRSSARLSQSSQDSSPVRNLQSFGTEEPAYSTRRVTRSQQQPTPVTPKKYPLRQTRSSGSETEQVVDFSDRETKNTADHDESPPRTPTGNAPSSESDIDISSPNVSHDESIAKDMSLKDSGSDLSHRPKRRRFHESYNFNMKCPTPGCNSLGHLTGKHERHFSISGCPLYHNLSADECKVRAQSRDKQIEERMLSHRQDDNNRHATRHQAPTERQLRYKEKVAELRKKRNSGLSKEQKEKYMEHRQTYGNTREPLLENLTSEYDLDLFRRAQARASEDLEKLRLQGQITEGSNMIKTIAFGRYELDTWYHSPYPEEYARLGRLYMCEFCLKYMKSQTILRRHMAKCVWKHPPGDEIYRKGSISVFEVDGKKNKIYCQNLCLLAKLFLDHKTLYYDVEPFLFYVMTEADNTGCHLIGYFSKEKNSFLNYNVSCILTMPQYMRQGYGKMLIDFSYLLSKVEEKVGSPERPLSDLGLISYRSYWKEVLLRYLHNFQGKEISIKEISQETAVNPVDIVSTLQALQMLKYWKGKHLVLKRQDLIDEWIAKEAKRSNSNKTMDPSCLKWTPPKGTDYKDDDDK
Chain of KAT-5 (Q92993 other isoform, or with tags, fused parts or gaps): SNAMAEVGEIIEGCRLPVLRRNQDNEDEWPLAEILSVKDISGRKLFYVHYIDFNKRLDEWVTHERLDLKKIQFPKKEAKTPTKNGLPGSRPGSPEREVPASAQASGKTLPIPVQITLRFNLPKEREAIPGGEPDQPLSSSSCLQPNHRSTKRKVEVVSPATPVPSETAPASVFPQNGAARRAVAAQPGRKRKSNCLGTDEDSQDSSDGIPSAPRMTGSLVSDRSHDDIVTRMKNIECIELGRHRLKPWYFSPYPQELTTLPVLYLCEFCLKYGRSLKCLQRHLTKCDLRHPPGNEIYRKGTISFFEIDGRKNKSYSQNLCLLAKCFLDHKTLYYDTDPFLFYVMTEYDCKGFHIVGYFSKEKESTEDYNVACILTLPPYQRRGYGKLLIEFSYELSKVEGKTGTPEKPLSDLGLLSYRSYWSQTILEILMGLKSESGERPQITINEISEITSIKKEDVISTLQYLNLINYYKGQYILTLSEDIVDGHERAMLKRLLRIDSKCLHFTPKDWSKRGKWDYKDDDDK

Broadly, the IC50 is the concentration that inhibits the measured activity by half. Low readings indicate greater potency, high ones weaker potency. In the case of `COc1ccc(CN(C)C(=O)N[C@H]2C[C@@H](CS(=O)(=O)NNC(=O)c3cc(-c4cn(C)cn4)cc(Cl)c3F)C2)cc1` [Compound I-161], the IC50 in assay [1] was less than 10 µM; in assay [2], less than 10 µM; in assay [3], less than 10 µM; in assay [4], 10 to 50 µM.
Turning to `COc1ccc(CN(C)C(=O)N2CC[C@H](CS(=O)(=O)NNC(=O)c3cc(-c4cn(C)cn4)cc(Cl)c3F)C2)cc1` [Compound I-162], the IC50 was less than 10 µM in assay [1], 10 to 50 µM in assay [2], less than 10 µM in assay [3] and 10 to 50 µM in assay [4].
In the case of `CN(C)C(=O)N[C@H]1CC[C@@H](CS(=O)(=O)NNC(=O)c2cc(-c3cn(C)cn3)cc(Cl)c2F)CC1` [Compound I-163], the IC50 is less than 10 µM in assay [1], less than 10 µM in assay [2], less than 10 µM in assay [3] and 10 to 50 µM in assay [4].
On to `CCS(=O)(=O)N1CC(CS(=O)(=O)NNC(=O)c2cc(-c3cn(C)cn3)cc(Cl)c2F)C1` [Compound I-164], for which the IC50 in assay [1] was 10 to 50 µM; in assay [2], less than 10 µM; in assay [3], less than 10 µM; in assay [4], 10 to 50 µM.
In the case of `O=C(NNS(=O)(=O)CC1CCOCC1)c1cc(-n2cncn2)cc(Cl)c1F` [Compound I-165], the IC50 in assay [1], in assay [2], in assay [3] and in assay [4] was 10 to 50 µM each time.
`CN(C)C(=O)N1CC(CS(=O)(=O)NNC(=O)c2cc(-c3cn(C)cn3)cc(Cl)c2F)C1` [Compound I-167]: the IC50 in assay [1] is 10 to 50 µM; in assay [2] it was less than 10 µM; in assay [3] it was less than 10 µM; in assay [4], 10 to 50 µM.
For `CCNC(=O)N1CC(CS(=O)(=O)NNC(=O)c2cc(-c3cn(C)cn3)cc(Cl)c2F)C1` [Compound I-168], the IC50 is 10 to 50 µM in assay [1], 10 to 50 µM in assay [2], less than 10 µM in assay [3] and 10 to 50 µM in assay [4].
As to `Cn1cnc(-c2cc(Cl)c(F)c(C(=O)NNS(=O)(=O)CC3CN(C(=O)N4CCC4)C3)c2)c1` [Compound I-169], the IC50 in assay [1] is 10 to 50 µM; in assay [2], less than 10 µM; in assay [3], less than 10 µM; in assay [4], 10 to 50 µM.
Consider `Cn1cnc(-c2cc(Cl)c(F)c(C(=O)NNS(=O)(=O)CC3CN(S(=O)(=O)C4CCC4)C3)c2)c1` [Compound I-170], for which the IC50 in assay [1] is 10 to 50 µM; in assay [2], less than 10 µM; in assay [3], less than 10 µM; in assay [4], 10 to 50 µM.
Take `COc1ccc(CN(C)C(=O)N2CCCC(CS(=O)(=O)NNC(=O)c3cc(-c4cn(C)cn4)cc(Cl)c3F)C2)cc1` (centres unmarked) [Compound I-171]: the IC50 was less than 10 µM in assay [1], less than 10 µM in assay [2], less than 10 µM in assay [3] and 10 to 50 µM in assay [4].
Consider `CNC(=S)N1CC[C@H](CS(=O)(=O)NNC(=O)c2cc(-c3cn(C)cn3)cc(Cl)c2F)C1` [Compound I-172], for which the IC50 was less than 10 µM in assay [1], less than 10 µM in assay [2], less than 10 µM in assay [3] and 10 to 50 µM in assay [4].
`Cn1cnc(-c2cc(Cl)c(F)c(C(=O)NNS(=O)(=O)C[C@H]3C[C@@H](NS(C)(=O)=O)C3)c2)c1` [Compound I-173]: the IC50 in assay [1] is less than 10 µM; in assay [2], less than 10 µM; in assay [3], less than 10 µM; in assay [4] it was 10 to 50 µM.
Consider `COc1ccc(CNC(=O)N[C@H]2C[C@H](CS(=O)(=O)NNC(=O)c3cc(-c4cn(C)cn4)cc(Cl)c3F)C2)cc1` [Compound I-174], for which the IC50 in assay [1] was less than 10 µM; in assay [2] it was less than 10 µM; in assay [3], less than 10 µM; in assay [4], 10 to 50 µM.
For `COc1ccc(CN(C)C(=O)N[C@H]2C[C@H](CS(=O)(=O)NNC(=O)c3cc(-c4cn(C)cn4)cc(Cl)c3F)C2)cc1` [Compound I-175], the IC50 in assay [1] is less than 10 µM; in assay [2], less than 10 µM; in assay [3], less than 10 µM; in assay [4], 10 to 50 µM.
`CNC(=O)N[C@H]1CC[C@H](CS(=O)(=O)NNC(=O)c2cc(-c3cn(C)cn3)cc(Cl)c2F)CC1` [Compound I-176]: the IC50 in assay [1] was less than 10 µM; in assay [2], less than 10 µM; in assay [3], less than 10 µM; in assay [4], 10 to 50 µM.
With `COc1ccc(CNC(=O)NC2CCC(CS(=O)(=O)NNC(=O)c3cc(-c4cn(C)cn4)cc(Cl)c3F)CC2)cc1` (centres unmarked) [Compound I-177], the IC50 in assay [1], in assay [2], in assay [3] and in assay [4] was less than 10 µM each time.
With `CCCS(=O)(=O)N1CC(CS(=O)(=O)NNC(=O)c2cc(-c3cn(C)cn3)cc(Cl)c2F)C1` [Compound I-178], the IC50 in assay [1] was 10 to 50 µM; in assay [2], less than 10 µM; in assay [3], less than 10 µM; in assay [4], 10 to 50 µM.
Turning to `COc1ccc(CN(C)C(=O)N2CC[C@@H](CS(=O)(=O)NNC(=O)c3cc(-c4cn(C)cn4)cc(Cl)c3F)C2)cc1` [Compound I-179], the half-inhibitory concentration (IC50) in assay [1] is less than 10 µM; in assay [2], less than 10 µM; in assay [3], less than 10 µM; in assay [4], 10 to 50 µM.
For `CN(C)C(=O)N[C@H]1C[C@H](CS(=O)(=O)NNC(=O)c2cc(-c3cn(C)cn3)cc(Cl)c2F)C1` [Compound I-180], the IC50 is less than 10 µM in assay [1], less than 10 µM in assay [2], less than 10 µM in assay [3] and 10 to 50 µM in assay [4].
`COc1ccc(CNC(=O)N2CCC(CS(=O)(=O)NNC(=O)c3cc(-c4cn(C)cn4)cc(Cl)c3F)C2)cc1` (centres unmarked) [Compound I-181]: the IC50 is less than 10 µM in assay [1], less than 10 µM in assay [2], less than 10 µM in assay [3] and 10 to 50 µM in assay [4].
In the case of `CNC(=S)N1CC[C@@H](CS(=O)(=O)NNC(=O)c2cc(-c3cn(C)cn3)cc(Cl)c2F)C1` [Compound I-183], the IC50 in assay [1] was less than 10 µM; in assay [2], less than 10 µM; in assay [3] it was less than 10 µM; in assay [4], 10 to 50 µM.
As to `CC(=O)N[C@H]1CC[C@@H](CS(=O)(=O)NNC(=O)c2cc(-c3cn(C)cn3)cc(Cl)c2F)CC1` [Compound I-184], the IC50 in assay [1] was less than 10 µM; in assay [2], less than 10 µM; in assay [3] it was less than 10 µM; in assay [4], 10 to 50 µM.
Consider `Cn1cnc(-c2cc(Cl)c(F)c(C(=O)NNS(=O)(=O)CC3CN(S(=O)(=O)C4CC4)C3)c2)c1` [Compound I-185], for which the IC50 in assay [1] is 10 to 50 µM; in assay [2], less than 10 µM; in assay [3], less than 10 µM; in assay [4], 10 to 50 µM.
Consider `CNC(=O)N[C@H]1C[C@@H](CS(=O)(=O)NNC(=O)c2cc(-c3cn(C)cn3)cc(Cl)c2F)C1` [Compound I-186], for which the IC50 in assay [1] is less than 10 µM; in assay [2], less than 10 µM; in assay [3], less than 10 µM; in assay [4], 10 to 50 µM.
For the compound `CC(C)NC(=O)N1CCCC(CS(=O)(=O)NNC(=O)c2cc(-c3cn(C)cn3)cc(Cl)c2F)C1` (centres unmarked) [Compound I-187], the IC50 in assay [1] was less than 10 µM; in assay [2] it was less than 10 µM; in assay [3] it was less than 10 µM; in assay [4], 10 to 50 µM.
As for `CNC(=O)N[C@H]1C[C@H](CS(=O)(=O)NNC(=O)c2cc(-c3cn(C)cn3)cc(Cl)c2F)C1` [Compound I-188], the concentration for half-maximal inhibition (IC50) in assay [1] was 10 to 50 µM; in assay [2], 10 to 50 µM; in assay [3] it was less than 10 µM; in assay [4], 10 to 50 µM.
`COCCN(Cc1ccc(OC)cc1)C(=O)N1CCC(CS(=O)(=O)NNC(=O)c2cc(-c3cn(C)cn3)cc(Cl)c2F)C1` (centres unmarked) [Compound I-189]: the IC50 is less than 10 µM in assay [1], less than 10 µM in assay [2], less than 10 µM in assay [3] and 10 to 50 µM in assay [4].
Turning to `COCCNC(=O)N1CCC(CS(=O)(=O)NNC(=O)c2cc(-c3cn(C)cn3)cc(Cl)c2F)C1` (centres unmarked) [Compound I-190], the IC50 in assay [1] is less than 10 µM; in assay [2] it was less than 10 µM; in assay [3] it was less than 10 µM; in assay [4], 10 to 50 µM.
Consider `CNC(=O)N1CCCC(CS(=O)(=O)NNC(=O)c2cc(-c3cn(C)cn3)cc(Cl)c2F)C1` (centres unmarked) [Compound I-191], for which the IC50 in assay [1] was less than 10 µM; in assay [2] it was less than 10 µM; in assay [3], less than 10 µM; in assay [4], 10 to 50 µM.
`COCCc1nc(-c2cc(Cl)c(F)c(C(=O)NNS(=O)(=O)CC3CCCCC3)c2)cn1C` [Compound I-192]: the IC50 in assay [1] is 10 to 50 µM; in assay [2], 10 to 50 µM; in assay [3], less than 10 µM; in assay [4], 10 to 50 µM.
For `CC(C)S(=O)(=O)N1CC(CS(=O)(=O)NNC(=O)c2cc(-c3cn(C)cn3)cc(Cl)c2F)C1` [Compound I-193], the IC50 is 10 to 50 µM in assay [1], less than 10 µM in assay [2], less than 10 µM in assay [3] and 10 to 50 µM in assay [4].
As to `Cn1cnc(-c2cc(Cl)c(F)c(C(=O)NNS(=O)(=O)C[C@H]3CC[C@H](NC(N)=O)CC3)c2)c1` [Compound I-194], the IC50 in assay [1] is less than 10 µM; in assay [2], less than 10 µM; in assay [3], less than 10 µM; in assay [4], 10 to 50 µM.
